Results taken from patent publication US20240254139A1, “FUSED ISOXAZOLYL COMPOUNDS AS KAT6A INHIBITORS” (Aurigene Oncology Limited, priority 2021, published 2024).

Biological target: T1, human-KAT6A (MYST domain 507-778 aa) (Homo sapiens, UniProt Q92794)
T1 construct: human-KAT6A (MYST domain 507-778 aa)
Assay: KAT6A biochemical assay (TR-FRET)
Conditions: for inhibition at 1 µM: compound at 1 μM, percent inhibition of internal assay controls; for inhibition at 10 µM: compound at 10 μM (stated in the cell), read-out: Percent Inhibition (at 10 μM); for IC50: dose-response, sigmoidal curve fit, groups A, B, C
Description: A TR-FRET based method was used for assaying compounds of the invention for KAT6A enzyme inhibitory activity. TR-FRET is homogeneous proximity assay where Europium-labelled anti-acetyl lysine antibody binds to the acetylated substrate labelled with biotin which in turn binds to streptavidin labelled APC fluorescence acceptor. Europium can transfer energy to APC in the complex and the interaction of two dye-labelled binding partners is detected by the energy transfer between a donor and an acceptor dye, and the subsequent light emission by the acceptor dye. KAT6A transfer an acetyl group from acetyl CoA to lysine amino acids of histones/target proteins. Typically, 5 μL of human-KAT6A (MYST domain 507-778 aa) in assay buffer (100 mM Tris HCl (pH 7.8), 15 mM NaCl, 1 mM EDTA, 0.01% Tween-20, 0.02% BSA, 1 mM DTT) is added to a 384-well plate containing 5 μL of selected test compound in final 1% DMSO, serially diluted in 1:3 in an 8-10-point titration. The selected compound of the present invention and enzyme are incubated for 30 min at room temperature. Next, 5 μL of substrate mix containing histone H4 peptide and acetyl-CoA in assay buffer is added to the plate. The final concentrations of H4 peptide and acetyl-CoA are 200 nM and 600 nM respectively. Following 30 min reaction at room temperature, 5 μL of detection mix containing Europium labelled anti-acetyl antibody and streptavidin-APC is added to the reaction wells. Plate is further incubated for 45 min at room temperature and is read in TR-FRET mode (Ex: 340 nm; Em: 615 nm and 665 nm) on a plate reader.
Selected compounds of the present invention were screened in the above-mentioned assay procedure and IC50 values were determined by fitting the dose-response data to sigmoidal curve fitting equation using Graph pad prism software V8. […]

T1 sequence (Q92794 507-778): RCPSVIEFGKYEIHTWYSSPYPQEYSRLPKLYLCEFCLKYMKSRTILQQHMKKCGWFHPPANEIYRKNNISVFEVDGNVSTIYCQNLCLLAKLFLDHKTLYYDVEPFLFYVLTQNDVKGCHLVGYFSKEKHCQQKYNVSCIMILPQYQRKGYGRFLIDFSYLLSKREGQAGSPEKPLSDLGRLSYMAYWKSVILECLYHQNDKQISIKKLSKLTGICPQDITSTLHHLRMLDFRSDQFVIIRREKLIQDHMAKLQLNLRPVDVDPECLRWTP

Row | Compound | inhibition at 1 µM | inhibition at 10 µM | IC50
1 | COc1cccc(OC)c1S(=O)(=O)Nc1noc2cc(-c3ccccc3)n(C)c(=O)c12 [Compound 4, 2,6-dimethoxy-N-(5-methyl-4-oxo-6-phenyl-4,5-dihydroisoxazolo[4,5-c]pyridin-3-yl)benzenesulfonamide] | 23% |  | 
2 | COc1cccc(OC)c1S(=O)(=O)Nc1noc2nc(-c3ccccc3)cc(OC)c12 [Compound 1, 2,6-dimethoxy-N-(4-methoxy-6-phenylisoxazolo[5,4-b]pyridin-3-yl)benzenesulfonamide] | 100% |  | < 100 nM
3 | COc1ccccc1-c1cc(OC)c2c(NS(=O)(=O)c3c(OC)cccc3OC)noc2n1 [Compound 10, 2,6-dimethoxy-N-(4-methoxy-6-(2-methoxyphenyl)isoxazolo[5,4-b]pyridin-3-yl)benzenesulfonamide] | 100% |  | < 100 nM
4 | COc1cccc(OC)c1S(=O)(=O)Nc1noc2cc(-c3ccccc3)nc(OC)c12 [Compound 3, 2,6-dimethoxy-N-(4-methoxy-6-phenylisoxazolo[4,5-c]pyridin-3-yl)benzenesulfonamide] | 96% |  | 110 to 200 nM
5 | COc1cccc(OC)c1S(=O)(=O)Nc1noc2nc(N3CCCC3)cc(OC)c12 [Compound 13, 2,6-dimethoxy-N-(4-methoxy-6-(pyrrolidin-1-yl)isoxazolo[5,4-b]pyridin-3-yl)benzenesulfonamide] | 97% |  | 110 to 200 nM
6 | COc1cccc(OC)c1S(=O)(=O)Nc1noc2nc(N3CCC3)cc(OC)c12 [Compound 16, N-(6-(azetidin-1-yl)-4-methoxyisoxazolo[5,4-b]pyridin-3-yl)-2,6-dimethoxybenzenesulfonamide] | 100% |  | 110 to 200 nM
7 | COc1cc(-c2ccccc2)nc2onc(NS(=O)(=O)c3ccccc3-c3ccccc3)c12 [Compound 5, N-(4-methoxy-6-phenylisoxazolo[5,4-b]pyridin-3-yl)-[1,1′-biphenyl]-2-sulfonamide] | 52% |  | < 100 nM
8 | COc1cccc(OC)c1S(=O)(=O)Nc1noc2nc(N(C)C)cc(OC)c12 [Compound 15, N-(6-(dimethylamino)-4-methoxyisoxazolo[5,4-b]pyridin-3-yl)-2,6-dimethoxybenzenesulfonamide] | 59% |  | > 200 nM
9 | CCOc1ccccc1S(=O)(=O)Nc1noc2nc(-c3ccccc3)cc(OC)c12 [Compound 9, 2-ethoxy-N-(4-methoxy-6-phenylisoxazolo[5,4-b]pyridin-3-yl)benzenesulfonamide] | 62% |  | > 200 nM
10 | COc1cccc(OC)c1S(=O)(=O)Nc1noc2nc(N3CCOCC3)cc(OC)c12 [Compound 14, 2,6-dimethoxy-N-(4-methoxy-6-morpholinoisoxazolo[5,4-b]pyridin-3-yl)benzenesulfonamide] | 49% |  | 
11 | COc1cccc(OC)c1S(=O)(=O)Nc1noc2nc(-c3ccccc3)nc(OC)c12 [Compound 2, 2,6-dimethoxy-N-(4-methoxy-6-phenylisoxazolo[5,4-d]pyrimidin-3-yl)benzenesulfonamide] | 100% |  | < 100 nM
12 | COc1cccc(OC)c1S(=O)(=O)Nc1noc2nc(N3CCC(F)(F)C3)cc(OC)c12 [Compound 18, N-(6-(3,3-difluoropyrrolidin-1-yl)-4-methoxyisoxazolo[5,4-b]pyridin-3-yl)-2,6-dimethoxybenzenesulfonamide] | 100% |  | < 100 nM
13 | COc1cccc(OC)c1S(=O)(=O)Nc1noc2nc(N3CC(OC)C3)cc(OC)c12 [Compound 17, 2,6-dimethoxy-N-(4-methoxy-6-(3-methoxyazetidin-1-yl)isoxazolo[5,4-b]pyridin-3-yl)benzenesulfonamide] | 100% |  | 110 to 200 nM
14 | COc1cccc(OC)c1S(=O)(=O)Nc1noc2cc(-c3ccccc3)cnc12 [Compound 6, 2,6-dimethoxy-N-(6-phenylisoxazolo[4,5-b]pyridin-3-yl)benzenesulfonamide] |  | 58% | 
15 | COc1ccccc1S(=O)(=O)Nc1noc2nc(-c3ccccc3)cc(OC)c12 [Compound 8, 2-methoxy-N-(4-methoxy-6-phenylisoxazolo[5,4-b]pyridin-3-yl)benzenesulfonamide] | 82% |  | 110 to 200 nM

Next, values leading:

Row | inhibition at 1 µM | inhibition at 10 µM | IC50 | Compound
16 | 34% |  |  | CNc1cc(OC)c2c(NS(=O)(=O)c3c(OC)cccc3OC)noc2n1 [Compound 37, 2,6-dimethoxy-N-(4-methoxy-6-(methylamino)isoxazolo[5,4-b]pyridin-3-yl)benzenesulfonamide]
17 |  | 100% | > 200 nM | COc1cc(C(C)(C)C)ccc1S(=O)(=O)Nc1noc2nc(-c3ccccc3)cc(OC)c12 [Compound 34, 4-(tert-butyl)-2-methoxy-N-(4-methoxy-6-phenylisoxazolo[5,4-b]pyridin-3-yl)benzenesulfonamide]
18 | 38% |  |  | COc1ccc(CN(C)c2cc(OC)c3c(NS(=O)(=O)c4c(OC)cccc4OC)noc3n2)cc1 [Compound 29, 2,6-dimethoxy-N-(4-methoxy-6-((4-methoxybenzyl)(methyl)amino)isoxazolo[5,4-b]pyridin-3-yl)benzenesulfonamide]
19 | 23% |  |  | COc1cc(-c2ccccc2)nc2onc(NS(=O)(=O)c3ccccc3F)c12 [Compound 26, 2-fluoro-N-(4-methoxy-6-phenylisoxazolo[5,4-b]pyridin-3-yl)benzenesulfonamide]
20 |  |  | > 200 nM | COc1cccc(OC)c1S(=O)(=O)Nc1noc2nc(Cn3cccn3)cc(OC)c12 [Compound 35, N-(6-((1H-pyrazol-1-yl)methyl)-4-methoxyisoxazolo[5,4-b]pyridin-3-yl)-2,6-dimethoxybenzenesulfonamide]
21 |  |  | < 100 nM | COc1cccc(OC)c1S(=O)(=O)Nc1noc2nc(-c3ccsc3)cc(OC)c12 [Compound 31, 2,6-dimethoxy-N-(4-methoxy-6-(thiophen-3-yl)isoxazolo[5,4-b]pyridin-3-yl)benzenesulfonamide]
22 | 92% |  | 110 to 200 nM | COc1cccc(OC)c1S(=O)(=O)Nc1noc2nc(N3CCC(OC)C3)cc(OC)c12 (centres unmarked) [Compound 19, 2,6-dimethoxy-N-(4-methoxy-6-(3-methoxypyrrolidin-1-yl)isoxazolo[5,4-b]pyridin-3-yl)benzenesulfonamide]
23 | 11% |  |  | COc1cccc(OC)c1S(=O)(=O)Nc1noc2cnccc12 [Compound 21, N-(isoxazolo[5,4-c]pyridin-3-yl)-2,6-dimethoxybenzenesulfonamide]
24 | 12% |  |  | COc1cccc(OC)c1S(=O)(=O)Nc1noc2nccnc12 [Compound 22, N-(isoxazolo[4,5-b]pyrazin-3-yl)-2,6-dimethoxybenzenesulfonamide]
25 | 80% |  | > 200 nM | COc1cccc(OC)c1S(=O)(=O)Nc1noc2nc(N3CC(F)(F)C3)cc(OC)c12 [Compound 28, N-(6-(3,3-difluoroazetidin-1-yl)-4-methoxyisoxazolo[5,4-b]pyridin-3-yl)-2,6-dimethoxybenzenesulfonamide]
26 |  |  | 110 to 200 nM | COc1cccc(OC)c1S(=O)(=O)Nc1noc2nc(C3=CCCC3)cc(OC)c12 [Compound 32, N-(6-(cyclopent-1-en-1-yl)-4-methoxyisoxazolo[5,4-b]pyridin-3-yl)-2,6-dimethoxybenzenesulfonamide]
27 | 17% |  |  | COc1cccc(OC)c1S(=O)(=O)Nc1noc2nc(N(C)C3CCCCC3)cc(OC)c12 [Compound 27, N-(6-(cyclohexyl(methyl)amino)-4-methoxyisoxazolo[5,4-b]pyridin-3-yl)-2,6-dimethoxybenzenesulfonamide]
28 | 56% |  |  | CCN(Cc1ccc(OC)cc1)c1cc(OC)c2c(NS(=O)(=O)c3c(OC)cccc3OC)noc2n1 [Compound 30, N-(6-(ethyl(4-methoxybenzyl)amino)-4-methoxyisoxazolo[5,4-b]pyridin-3-yl)-2,6-dimethoxybenzenesulfonamide]
29 | 95% |  |  | CCNc1cc(OC)c2c(NS(=O)(=O)c3c(OC)cccc3OC)noc2n1 [Compound 38, N-(6-(ethylamino)-4-methoxyisoxazolo[5,4-b]pyridin-3-yl)-2,6-dimethoxybenzenesulfonamide]
30 | 30% |  |  | COc1cc(-c2ccccc2)nc2onc(NS(=O)(=O)c3c(F)cccc3F)c12 [Compound 25, 2,6-difluoro-N-(4-methoxy-6-phenylisoxazolo[5,4-b]pyridin-3-yl)benzenesulfonamide]
31 | 0% |  |  | COc1cccc(OC)c1S(=O)(=O)N(C)c1noc2nc(-c3ccccc3)cc(OC)c12 [Compound 36, 2,6-dimethoxy-N-(4-methoxy-6-phenylisoxazolo[5,4-b]pyridin-3-yl)-N-methylbenzenesulfonamide]
32 | 14% |  |  | COc1cccc(OC)c1S(=O)(=O)Nc1noc2ncncc12 [Compound 20, N-(isoxazolo[5,4-d]pyrimidin-3-yl)-2,6-dimethoxybenzenesulfonamide]
